Experimental data reported in patent US8481028B2, “Compositions for preparing a coffee beverage comprising hydrolysed chlorogenic acid” (Nestec S.A., priority 2008, dated 2013).

Assays:
[1] = tested on: Lactobacillus johnsonii (CNCM I-1225); assay: Treatment of coffee extracts with bacteria cells (L. johnsonii), HPLC
Description: (§1) Coffee samples were diluted to 1% w/w and analyzed by RP-HPLC on a CC 250/4 Nucleosil 100-5-C18 column (Macherey-Nagel). The eluent system was Millipore water, 0.1% TFA and CH3CN at a flow rate of 1 mL/min. The method allowed the simultaneous determination of caffeoyl quinic acids (CQA), feruloyl quinic acids (FQA), di-caffeoyl quinic acids (diCQA), feruloyl quinic acid-lactones, caffeic acid (CA) and ferulic acid (FA) (absorbance at 325 nm) using external standard calibration curves. Results were expressed relative to the reference at time 0 (t0) or to the reference at the same time without bacteria.
(§2) Tested strains were harvested (centrifugation at 5000 g for 10 min) after having well reached stationary phase, corresponding to 16 hours of incubation in culture medium at 37° C. in anaerobic atmosphere without agitation. For a first activation of the strains, frozen stock cultures were inoculated in fresh media and grown overnight. This pre-culture was used to inoculate the culture.
(§3) After culture of bacteria and centrifugation, the pellets were resuspended in phosphate buffer (pH 7.0) at a concentration of 0.61 g/ml. To 200 μl of this cells preparation, 800 μl of a coffee solution (3%) was added and the mixture was incubated at 37° C. for 4 h, 16 h and 24 h.

[2] = tested on: Lactobacillus johnsonii (CNCM I-1225) extract (lysed cells); assay: Treatment of NESCAFE PROTECT with L. johnsonii extract (lysed cells), HPLC; type: biochemical
Description: Cells of L. johnsonii (CNCM I-1225) were grown (7.0 E08 cfu/ml) and centrifuged (5000 g, 10 min), the pellets were resuspended in phosphate buffer (50 mM, pH 7.0) at a concentration of 0.61 g/ml. The cells were then lysed using the glass-beads method. 600 μl of cells preparation were put in screw-cap tubes and 600 μl of glass-beads were added at 0° C. The tubes were then put into a Mini-Beadbeater for 1 min of intense shaking, cooled in ice, and put another 1 min in the Mini-Beadbeater. […] Samples were withdrawn at different reaction times, centrifuged (3000 g, 5 min), filtered through 0.45 μm pore size syringe filters (Millipore SLHA 025 BS) and analysed by HPLC.
as §1

[3] = tested on: spray-dried preparation of Lactobacillus johnsonii (CNCM I-1225); assay: Treatment of NESCAFE PROTECT with spray-dried preparation of L. johnsonii, HPLC
Description: To this solution, 10 mg of a spray-dried preparation of Lactobacillus johnsonii (CNCM I-1225) (3.3 E9 cfu/g) were added. The mixture was then incubated at 37° C. and samples were withdrawn at different reaction times. After centrifugation (3000 g, 5 min) and filtration (0.45 μm pore size syringe filters, Millipore SLHA 025 BS) the samples were analysed by HPLC.
as §1

[4] = tested on: Lactobacillus johnsonii (CNCM I-1225) fresh cells; assay: Treatment of NESCAFE PROTECT with L. johnsonii fresh cells, HPLC of chlorogenic and phenolic acids
Description: Cells of L. johnsonii (CNCM I-1225) were grown (7.0 E08 cfu/ml) and centrifuged (5000 g, 10 min), the pellets were resuspended in phosphate buffer (50 mM, pH 7.0) at a concentration of 0.61 g/ml. […] Samples were withdrawn at different reaction times, centrifuged (3000 g, 5 min) and filtered through 0.45 μm pore size syringe filters (Millipore SLHA 025 BS) and analysed by HPLC.
A reaction control was run in parallel under the same reaction conditions but without bacteria.
as §1

[5] = tested on: concentrated preparation of Lactobacillus johnsonii (CNCM I-1225); assay: Treatment of NESCAFE with concentrated preparation of L. johnsonii, HPLC
Description: 400 mg of NESCAFE SPECIAL FILTRE® (a dried extract of roasted coffee beans) were dissolved in 1 ml of boiling water and the solution was cooled to 37° C. at room temperature. To 250 μl of this coffee solution, different amounts of concentrated preparation of Lactobacillus johnsonii (50 μl, 100 μl, 350 μl, 750 μl) were added and the volume was adjusted to 1 ml with water. The mixtures were than incubated at 37° C. for 2 h and 4 h. After centrifugation (3000 g, 5 min) and filtration the samples were analysed by HPLC.
as §1

[6] = tested on: Bifidobacterium lactis BB12 (CNCM I-3446); assay: Treatment of coffee extracts with bacteria cells (B. lactis), HPLC
Description: as §1, §2, §3

[7] = tested on: Chlorogenate esterase; assay: Incubation of coffee extracts with chlorogenate esterase, HPLC; type: biochemical, Aspergillus japonicus
Description: as §1
Chlorogenate esterase (24 U/g), derived from Aspergillus japonicus (Kikkoman, Japan). Tannase from Aspergillus oryzae (Kikkoman, Japan) Preparation of Bacteria Cells
A solution of chlorogenate esterase (25 mg) in 200 μl phosphate buffer (pH 7.0) was added to 800 μl of a coffee solution (3%). The mixture was then incubated at 37° C. for 4 h, 16 h and 24 h. After reaction time, the enzymatic activity was stopped by heat treatment (3 min, 90° C.) and the mixture was filtered before analysis.

[8] = tested on: spray-dried preparation of Lactobacillus johnsonii (CNCM I-1225); assay: Treatment of green coffee extract with spray-dried preparation of L. johnsonii, HPLC
Description: 30 mg of a dried green coffee extract was dissolved in 1 ml phosphate buffer (50 mM, pH 7.0) or in 1 ml water. To this solution, 10 mg of a spray-dried preparation of Lactobacillus johnsonii (3.3 E9 cfu/g) was added. The mixture was then incubated at 37° C. and samples were withdrawn at different reaction times. After centrifugation (3000 g, 5 min) and filtration (0.45 μm pore size syringe filters, Millipore SLHA 025 BS) the samples were analysed by HPLC.
as §1

[9] = NESCAFE PROTECT + Lactobacillus johnsonii, 4 h
[10] = NESCAFE PROTECT + Lactobacillus johnsonii, 16 h
[11] = NESCAFE PROTECT + Lactobacillus johnsonii, 24 h
[12] = green coffee extract + Lactobacillus johnsonii, 4 h
[13] = green coffee extract + Lactobacillus johnsonii, 16 h
[14] = green coffee extract + Lactobacillus johnsonii, 24 h
[15] = NESCAFE PROTECT + Bifidobacterium lactis, 4 h
[16] = NESCAFE PROTECT + Bifidobacterium lactis, 16 h
[17] = NESCAFE PROTECT + Bifidobacterium lactis, 24 h
[18] = green coffee extract + Bifidobacterium lactis, 4 h
[19] = green coffee extract + Bifidobacterium lactis, 16 h
[20] = green coffee extract + Bifidobacterium lactis, 24 h
[21] = NESCAFE PROTECT + Chlorogenate esterase, 4 h
[22] = NESCAFE PROTECT + Chlorogenate esterase, 16 h
[23] = NESCAFE PROTECT + Chlorogenate esterase, 24 h
[24] = green coffee extract + Chlorogenate esterase, 4 h
[25] = green coffee extract + Chlorogenate esterase, 16 h
[26] = green coffee extract + Chlorogenate esterase, 24 h

COc1cc(/C=C/C(=O)O)ccc1O [FA, ferulic acid]
% relative to untreated control at t = 0 [1, 9]: 4051% | % relative to untreated control at t = 0 [1, 10]: 5226% | % relative to untreated control at t = 0 [1, 11]: 5504% | % relative to untreated control at t = 0 [1, 12]: 4607% | % relative to untreated control at t = 0 [1, 13]: 7192% | % relative to untreated control at t = 0 [1, 14]: 7597% | Concentration in % relative to untreated reference at t = 0 ([2]; 2 h, cell preparation 100.0 uL): 5581% | Concentration in % relative to untreated reference at t = 0 ([2]; 2 h, cell preparation 350.0 uL): 7771% | Concentration in % relative to untreated reference at t = 0 ([2]; 6 h, cell preparation 100.0 uL): 6960% | Concentration in % relative to untreated reference at t = 0 ([2]; 6 h, cell preparation 350.0 uL): 9720% | % relative to untreated control at t = 0 ([3]; 2 h): 1109% | % relative to untreated control at t = 0 ([3]; 6 h): 2183% | % relative to untreated control at t = 0 ([3]; 24 h): 3686% | Concentration in % relative to untreated reference at t = 0 ([4]; 6 h, cell preparation 100 uL): 4594% | Concentration in % relative to untreated reference at t = 0 ([4]; 6 h, cell preparation 350 uL): 7234% | Concentration in % relative to untreated reference at t = 0 ([4]; 6 h, cell preparation 750 uL): 7776% | Concentration in % relative to untreated reference at t = 0 ([4]; 24 h, cell preparation 100 uL): 6691% | Concentration in % relative to untreated reference at t = 0 ([4]; 24 h, cell preparation 350 uL): 8861% | Concentration in % relative to untreated reference at t = 0 ([4]; 24 h, cell preparation 750 uL): 8845% | % relative to untreated control at t = 0 ([5]; cell amount 50 μL/1 mL, 2 h): 1509% | % relative to untreated control at t = 0 ([5]; cell amount 50 μL/1 mL, 4 h): 786% | % relative to untreated control at t = 0 ([5]; cell amount 100 μL/1 mL, 2 h): 2468% | % relative to untreated control at t = 0 ([5]; cell amount 100 μL/1 mL, 4 h): 1266% | % relative to untreated control at t = 0 ([5]; cell amount 350 μL/1 mL, 2 h): 5327% | % relative to untreated control at t = 0 ([5]; cell amount 350 μL/1 mL, 4 h): 2408% | % relative to untreated control at t = 0 ([5]; cell amount 750 μL/1 mL, 2 h): 7586% | % relative to untreated control at t = 0 ([5]; cell amount 750 μL/1 mL, 4 h): 3281% | % relative to untreated control at t = 0 [6, 15]: 3065% | % relative to untreated control at t = 0 [6, 16]: 4518% | % relative to untreated control at t = 0 [6, 17]: 5144% | % relative to untreated control at t = 0 [6, 18]: 5020% | % relative to untreated control at t = 0 [6, 19]: 6970% | % relative to untreated control at t = 0 [6, 20]: 7105% | % relative to untreated control at t = 0 [7, 21]: 2794% | % relative to untreated control at t = 0 [7, 22]: 5140% | % relative to untreated control at t = 0 [7, 23]: 5518% | % relative to untreated control at t = 0 [7, 24]: 2620% | % relative to untreated control at t = 0 [7, 25]: 5685% | % relative to untreated control at t = 0 [7, 26]: 6293% | % relative to untreated control at t = 0 ([8]; 4 h): 961% | % relative to untreated control at t = 0 ([8]; 6 h): 1429% | % relative to untreated control at t = 0 ([8]; 16 h): 1963% | % relative to untreated control at t = 0 ([8]; 24 h): 2432%

caffeoyl quinic acids [CQA]
% relative to untreated control at t = 0 [1, 9]: 33% | % relative to untreated control at t = 0 [1, 10]: 13% | % relative to untreated control at t = 0 [1, 11]: 13% | % relative to untreated control at t = 0 [1, 12]: 42% | % relative to untreated control at t = 0 [1, 13]: 15% | % relative to untreated control at t = 0 [1, 14]: 12% | Concentration in % relative to untreated reference at t = 0 ([2]; 2 h, cell preparation 100.0 uL): 32% | Concentration in % relative to untreated reference at t = 0 ([2]; 2 h, cell preparation 350.0 uL): 10% | Concentration in % relative to untreated reference at t = 0 ([2]; 6 h, cell preparation 100.0 uL): 14% | Concentration in % relative to untreated reference at t = 0 ([2]; 6 h, cell preparation 350.0 uL): 6% | % relative to untreated control at t = 0 ([3]; 2 h): 73% | % relative to untreated control at t = 0 ([3]; 6 h): 67% | % relative to untreated control at t = 0 ([3]; 24 h): 32% | Concentration in % relative to untreated reference at t = 0 ([4]; 6 h, cell preparation 100 uL): 39% | Concentration in % relative to untreated reference at t = 0 ([4]; 6 h, cell preparation 350 uL): 14% | Concentration in % relative to untreated reference at t = 0 ([4]; 6 h, cell preparation 750 uL): 3% | Concentration in % relative to untreated reference at t = 0 ([4]; 24 h, cell preparation 100 uL): 15% | Concentration in % relative to untreated reference at t = 0 ([4]; 24 h, cell preparation 350 uL): 3% | Concentration in % relative to untreated reference at t = 0 ([4]; 24 h, cell preparation 750 uL): 0% | % relative to untreated control at t = 0 ([5]; cell amount 50 μL/1 mL, 2 h): 92% | % relative to untreated control at t = 0 ([5]; cell amount 50 μL/1 mL, 4 h): 76% | % relative to untreated control at t = 0 ([5]; cell amount 100 μL/1 mL, 2 h): 80% | % relative to untreated control at t = 0 ([5]; cell amount 100 μL/1 mL, 4 h): 60% | % relative to untreated control at t = 0 ([5]; cell amount 350 μL/1 mL, 2 h): 46% | % relative to untreated control at t = 0 ([5]; cell amount 350 μL/1 mL, 4 h): 33% | % relative to untreated control at t = 0 ([5]; cell amount 750 μL/1 mL, 2 h): 25% | % relative to untreated control at t = 0 ([5]; cell amount 750 μL/1 mL, 4 h): 17% | % relative to untreated control at t = 0 [6, 15]: 97% | % relative to untreated control at t = 0 [6, 16]: 81% | % relative to untreated control at t = 0 [6, 17]: 80% | % relative to untreated control at t = 0 [6, 18]: 96% | % relative to untreated control at t = 0 [6, 19]: 79% | % relative to untreated control at t = 0 [6, 20]: 74% | % relative to untreated control at t = 0 [7, 21]: 5% | % relative to untreated control at t = 0 [7, 22]: 3% | % relative to untreated control at t = 0 [7, 23]: 3% | % relative to untreated control at t = 0 [7, 24]: 3% | % relative to untreated control at t = 0 [7, 25]: 2% | % relative to untreated control at t = 0 [7, 26]: 2% | % relative to untreated control at t = 0 ([8]; 4 h): 77% | % relative to untreated control at t = 0 ([8]; 6 h): 69% | % relative to untreated control at t = 0 ([8]; 16 h): 58% | % relative to untreated control at t = 0 ([8]; 24 h): 50%
